Source: the supplement of paper PMC10307832

How the values were obtained:
Experiment in all cases: relative viability (nuclei count vs DMSO), 5 days (fraction); higher = more cells survive
[1] = compound: CCCS(=O)(=O)Nc1ccc(F)c(C(=O)c2c[nH]c3ncc(-c4ccc(Cl)cc4)cc23)c1F [Vemurafenib] + CC1(C)CCC(c2ccc(Cl)cc2)=C(CN2CCN(c3ccc(C(=O)NS(=O)(=O)c4ccc(N[C@H](CCN5CCOCC5)CSc5ccccc5)c(S(=O)(=O)C(F)(F)F)c4)cc3)CC2)C1 [Navitoclax] (partner 0.5 µM)
Method in brief: (§1)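 Nuclei were stained with Hoechst during a one-step fixation (final 0.05% Triton X-100, 1% formaldehyde, 1 ug/ml Hoechst) carried out 5 days after dosing, then counted on 4× images. The cells, lung cancer lines in 1536-well plates, had been dosed by pin tool the day after seeding with one drug alone or a fixed anchor-drug dose plus five library-drug doses (not always all listed) in √10 steps. Relative viability is the nuclei count in treated wells divided by that in vehicle wells, and each value is the median of duplicate plates.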

[2] = compound: CCCS(=O)(=O)Nc1ccc(F)c(C(=O)c2c[nH]c3ncc(-c4ccc(Cl)cc4)cc23)c1F [Vemurafenib] + Cc1nc(NC(=O)N2CCC[C@H]2C(N)=O)sc1-c1ccnc(C(C)(C)C(F)(F)F)c1 [Alpelisib] (partner 2 µM)
Method in brief: as §1

[3] = compound: COc1cccc2cc(-c3nc([C@H]4CC[C@H](C(=O)O)CC4)n4ncnc(N)c34)[nH]c12 [OSI-027] + COc1cc2c(Oc3ccc(NC(=O)C4(C(=O)Nc5ccc(F)cc5)CC4)cc3F)ccnc2cc1OCCCN1CCOCC1 [Foretinib] (partner 0.25 µM)
Method in brief: as §1

[4] = compound: COc1cccc2cc(-c3nc([C@H]4CC[C@H](C(=O)O)CC4)n4ncnc(N)c34)[nH]c12 [OSI-027] + Cc1nc(NC(=O)N2CCC[C@H]2C(N)=O)sc1-c1ccnc(C(C)(C)C(F)(F)F)c1 [Alpelisib] (partner 2 µM)
Method in brief: as §1

| Cell Line | relative viability ([1]; first compound 0.03162 µM) | relative viability ([1]; first compound 0.1 µM) | relative viability ([1]; first compound 0.3162 µM) | relative viability ([1]; first compound 1 µM) | relative viability ([2]; first compound 0.03162 µM) | relative viability ([2]; first compound 0.1 µM) | relative viability ([2]; first compound 0.3162 µM) | relative viability ([2]; first compound 1 µM) | relative viability ([3]; first compound 0.01 µM) | relative viability ([3]; first compound 0.03162 µM) | relative viability ([3]; first compound 0.1 µM) | relative viability ([3]; first compound 0.3162 µM) | relative viability ([3]; first compound 1 µM) | relative viability ([4]; first compound 0.01 µM) | relative viability ([4]; first compound 0.03162 µM) | relative viability ([4]; first compound 0.1 µM) | relative viability ([4]; first compound 0.3162 µM) | relative viability ([4]; first compound 1 µM) |
| --- | --- | --- | --- | --- | --- | --- | --- | --- | --- | --- | --- | --- | --- | --- | --- | --- | --- | --- |
| NCI-H1734 | 0.787 | 0.77 | 0.784 | 0.823 | 0.598 | 0.7 | 0.602 | 0.603 | 0.87 | 0.92 | 0.799 | 0.726 | 0.477 | 0.642 | 0.694 | 0.63 | 0.517 | 0.259 |
| HCC-366 | 0.997 | 0.983 |  | 1.03 | 0.417 | 0.391 |  | 0.379 | 0.98 | 1.05 | 0.978 | 0.878 | 0.748 | 0.373 | 0.423 | 0.256 | 0.243 | 0.1 |
| LXF-289 | 0.853 | 0.883 | 0.951 | 1.03 | 1.02 | 1.02 | 1.05 | 1.03 | 0.956 | 0.989 | 1.01 | 0.903 | 0.747 | 1.05 | 1.05 | 0.991 | 0.909 | 0.496 |
| NCI-H838 | 1.07 | 1.21 |  | 1.27 | 0.879 | 0.957 |  | 1.04 | 1.04 | 0.827 | 0.901 | 0.568 | 0.416 | 0.996 | 0.847 | 0.632 | 0.498 | 0.275 |
| NCI-H1993 | 0.857 |  | 1.25 | 1.08 | 0.62 |  | 0.585 | 0.647 | 0.749 | 0.633 | 0.549 | 0.487 | 0.575 | 0.647 | 0.646 | 0.562 | 0.533 | 0.655 |
| NCI-H1437 | 1.01 | 1.06 | 1.05 | 1.09 | 0.915 | 0.96 | 0.842 | 0.901 | 1.27 | 1.26 | 1.34 | 1.28 | 0.691 | 1 | 0.676 | 0.895 | 0.521 | 0.272 |
| NCI-H647 | 1.05 | 0.913 |  | 1.23 | 0.898 | 1.12 | 0.995 | 0.891 | 1.39 | 1.14 | 1.28 | 1.01 | 0.575 | 1.15 | 1.26 | 0.914 | 0.699 | 0.376 |
| A549 | 1.09 | 1.29 | 1.31 | 1.16 | 0.568 | 0.713 | 0.772 | 0.867 | 1.14 | 1.04 | 1.01 | 0.84 | 0.465 | 0.718 | 0.612 | 0.727 | 0.361 | 0.131 |
| HCC-78 | 0.818 | 0.608 | 1.13 | 0.656 | 0.351 | 0.249 | 0.663 | 0.361 | 0.551 | 0.511 | 0.52 | 0.425 | 0.366 | 0.337 | 0.3 | 0.248 | 0.14 | 0.163 |
